Test [1] deals with T1, Tyrosine-protein kinase ITK/TSK (Homo sapiens) (UniProt Q08881).
T1 sequence (whole entry): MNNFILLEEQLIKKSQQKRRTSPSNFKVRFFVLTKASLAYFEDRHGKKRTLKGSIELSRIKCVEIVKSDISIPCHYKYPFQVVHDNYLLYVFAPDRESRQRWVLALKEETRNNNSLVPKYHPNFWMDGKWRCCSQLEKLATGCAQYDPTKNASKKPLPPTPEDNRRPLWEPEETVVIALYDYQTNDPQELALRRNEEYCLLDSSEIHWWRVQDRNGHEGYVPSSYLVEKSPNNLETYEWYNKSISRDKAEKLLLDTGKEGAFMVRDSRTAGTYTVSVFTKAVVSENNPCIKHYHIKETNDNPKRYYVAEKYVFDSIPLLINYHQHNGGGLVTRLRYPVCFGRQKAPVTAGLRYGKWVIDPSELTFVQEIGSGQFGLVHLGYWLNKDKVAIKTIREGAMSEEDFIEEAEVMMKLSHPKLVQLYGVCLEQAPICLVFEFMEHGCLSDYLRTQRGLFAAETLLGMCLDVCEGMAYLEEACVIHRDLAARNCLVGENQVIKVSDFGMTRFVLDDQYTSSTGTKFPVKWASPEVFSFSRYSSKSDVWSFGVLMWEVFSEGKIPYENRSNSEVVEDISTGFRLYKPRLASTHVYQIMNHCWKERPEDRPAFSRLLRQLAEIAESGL
As to the kind of experiment: Inhibition of recombinant human N-terminal His6-tagged ITK (352 to 617 residues) expressed in baculovirus infected Sf21 insect cells assessed as inactivation rate constant using STK substrate by HTRF assay. In general terms: In TR-FRET formats the signal depends on donor and acceptor labels being close together.

Test [2] deals with T2, Tyrosine-protein kinase BTK (Homo sapiens, UniProt Q06187). As to the kind of experiment: Inhibition of BTK in human Ramos cells assessed as reduction in […] PLCgamma2 phosphorylation at 10 to 3000 nM preincubated for 2 hrs followed by […] addition and measured after 30 min by Western blot analysis. Format: cell-based. Background: In western blotting, separated proteins are transferred to a membrane and probed.

For test [3], the system named is Jurkat. As to the kind of experiment: Induction of apoptosis in human Jurkat cells assessed as upregulation of cleaved PARP at 1 to 20 uM incubated for 24 hrs by Western blot analysis. In kind it is functional, cell-based.
For test [4], the target named is T3, Tyrosine-protein kinase ITK/TSK (Homo sapiens, UniProt Q08881).
T3 sequence (Q08881 whole entry): T1 sequence (whole entry)
As to the kind of experiment: Inhibition of recombinant human N-terminal His6-tagged ITK (352 to 617 residues) expressed in baculovirus infected Sf21 insect cells using STK substrate by HTRF assay.

In test [5] the target is Calcium/calmodulin-dependent protein kinase type IV (Homo sapiens) (UniProt Q16566). Briefly: Inhibition of recombinant human full length GST-tagged CAMK4 expressed in Escherichia coli expression system assessed as enzyme residual activity at 0.4 uM using fluorophore-labeled serine/threonine-13 peptide as substrate incubated for 60 mins by Z'-LYTE assay relative to control.

The subject of test [6] is HEK-293T. As to the kind of experiment: Growth inhibition of HEK293T cells incubated for 72 hrs by CellTiter-Glo luminescent cell viability assay. Particulars: Homo sapiens. In kind it is functional. (ATP-based viability assays read luminescence as a measure of living cells.)
Test [7] addresses Serine/threonine-protein kinase Nek1 (Homo sapiens) (UniProt Q96PY6). As to the kind of experiment: Inhibition of recombinant human GST-tagged NEK1 catalytic domain (1 to 505 amino acids) expressed in baculovirus expression system assessed as enzyme residual activity at 0.4 uM using fluorophore-labeled serine/threonine-07 peptide as substrate incubated for 60 mins by Z'-LYTE assay relative to control.

The test system of test [8] is MOLT-4. Briefly: Induction of apoptosis in human MOLT4 cells assessed as downregulation of PARP at 1 to 20 uM incubated for 24 hrs by Western blot analysis. In kind it is functional, cell-based.
The target in test [9] is T1, Tyrosine-protein kinase ITK/TSK (Homo sapiens). As to the kind of experiment: Inhibition of recombinant human N-terminal His6-tagged ITK (352 to 617 residues) expressed in baculovirus infected Sf21 insect cells assessed as ratio of Kinact to Ki using STK substrate by HTRF assay.
The subject of test [10] is Jurkat. As to the kind of experiment: Induction of apoptosis in human Jurkat cells assessed as downregulation of PARP at 1 to 20 uM incubated for 24 hrs by Western blot analysis. In kind it is functional, cell-based.
Test [11] addresses T2, Tyrosine-protein kinase BTK. Briefly: Inhibition of recombinant human full-length N-terminal His6-tagged BTK expressed in baculovirus infected Sf21 insect cells using STK substrate by HTRF assay.
The target in test [12] is Tyrosine-protein kinase JAK3 (Homo sapiens) (UniProt P52333). Briefly: Inhibition of recombinant human GST-tagged JAK3 catalytic domain (781 to 1124 residues) expressed in baculovirus expression system assessed as enzyme residual activity at 0.4 uM using fluorophore-labeled tyrosine-6 peptide as substrate incubated for 60 mins by Z'-LYTE assay relative to control.
The target in test [13] is Tyrosine-protein kinase Fyn (Homo sapiens) (UniProt P06241). Briefly: Inhibition of recombinant full length C-terminal His-tagged human FYN cytoplasmic domain expressed in baculovirus expression system assessed as enzyme residual activity at 0.4 uM using fluorophore-labeled tyrosine-2 peptide as substrate by Z'-Lyte assay relative to control.
Test [14] is described as follows: Inhibition of tracer 236 binding to recombinant full length human C-terminal His-tagged AMPK alpha2/beta2/gamma1 expressed in baculovirus infected Sf9 cells assessed as enzyme residual activity at 0.4 uM incubated for 60 mins by Lanthascreen assay relative to control.
For test [15], the system named is CCRF-CEM. As to the kind of experiment: Growth inhibition of human CCRF-CEM cells incubated for 72 hrs by CellTiter-Glo luminescent cell viability assay. Format: functional.
Test [16] deals with TAK1/TAB1 (Homo sapiens, UniProt O43318). Briefly: Inhibition of tracer 222 binding to recombinant full-length human His-tagged MAP3K7/MAP3K7IP1 (437 to 504 residues) expressed in baculovirus expression system by Lanthascreen assay.
Test [17] addresses Serine/threonine-protein kinase Sgk1 (Homo sapiens) (UniProt O00141). As to the kind of experiment: Inhibition of recombinant human GST-tagged SGK1 catalytic domain (60 to 431 residues) expressed in baculovirus expression system assessed as enzyme residual activity at 0.4 uM using fluorophore-labeled serine/threonine-6 peptide as substrate incubated for 60 mins by Z'-LYTE assay relative to control.

Test [18] addresses Insulin-like growth factor 1 receptor (Homo sapiens) (UniProt P08069). As to the kind of experiment: Inhibition of recombinant human His-tagged IGF1R cytoplasmic domain ([…]) expressed in baculovirus expression system assessed as enzyme residual activity at 0.4 uM using fluorophore-labeled tyrosine-1 peptide as substrate incubated for 60 mins by Z'-LYTE assay relative to control.

The target of test [19] is Receptor-type tyrosine-protein kinase FLT3 (Homo sapiens) (UniProt P36888). Briefly: Inhibition of recombinant human His-tagged FLT3 cytoplasmic domain (564 to 958 residues) expressed in baculovirus expression system assessed as enzyme residual activity at 0.4 uM using fluorophore-labeled tyrosine-2 peptide as substrate incubated for 60 mins by Z'-LYTE assay relative to control.

For test [20], the target named is Rho-associated protein kinase 2 (Homo sapiens) (UniProt O75116). As to the kind of experiment: Inhibition of recombinant human N-terminal GST-tagged ROCK2 catalytic domain (1 to 552 residues) expressed in baculovirus expression system assessed as enzyme residual activity at 0.4 uM using fluorophore-labeled serine/threonine-13 peptide as substrate incubated for 60 mins by Z'-LYTE assay relative to control.

The source made the active and inactive calls. The rule behind the calls is not given here.

T2 sequence (Q06187 whole entry): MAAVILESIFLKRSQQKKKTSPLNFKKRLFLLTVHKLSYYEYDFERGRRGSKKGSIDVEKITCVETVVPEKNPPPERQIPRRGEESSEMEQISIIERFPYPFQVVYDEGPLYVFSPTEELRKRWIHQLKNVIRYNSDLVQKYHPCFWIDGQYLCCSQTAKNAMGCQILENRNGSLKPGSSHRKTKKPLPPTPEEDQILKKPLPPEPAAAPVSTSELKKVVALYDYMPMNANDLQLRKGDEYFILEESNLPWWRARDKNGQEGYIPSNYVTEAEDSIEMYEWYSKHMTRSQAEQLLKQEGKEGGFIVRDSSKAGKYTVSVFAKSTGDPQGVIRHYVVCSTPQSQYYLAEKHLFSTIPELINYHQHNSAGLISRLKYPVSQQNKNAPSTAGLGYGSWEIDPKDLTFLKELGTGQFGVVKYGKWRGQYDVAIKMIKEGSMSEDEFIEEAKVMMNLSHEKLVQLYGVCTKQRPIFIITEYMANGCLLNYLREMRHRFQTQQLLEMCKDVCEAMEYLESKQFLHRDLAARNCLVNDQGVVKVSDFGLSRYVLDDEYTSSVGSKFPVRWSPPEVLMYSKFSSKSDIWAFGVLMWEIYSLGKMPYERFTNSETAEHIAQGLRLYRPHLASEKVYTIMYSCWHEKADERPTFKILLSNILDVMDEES
Serine/threonine-protein kinase Sgk1 (Homo sapiens), sequence (O00141 whole entry, the tested form may be a part): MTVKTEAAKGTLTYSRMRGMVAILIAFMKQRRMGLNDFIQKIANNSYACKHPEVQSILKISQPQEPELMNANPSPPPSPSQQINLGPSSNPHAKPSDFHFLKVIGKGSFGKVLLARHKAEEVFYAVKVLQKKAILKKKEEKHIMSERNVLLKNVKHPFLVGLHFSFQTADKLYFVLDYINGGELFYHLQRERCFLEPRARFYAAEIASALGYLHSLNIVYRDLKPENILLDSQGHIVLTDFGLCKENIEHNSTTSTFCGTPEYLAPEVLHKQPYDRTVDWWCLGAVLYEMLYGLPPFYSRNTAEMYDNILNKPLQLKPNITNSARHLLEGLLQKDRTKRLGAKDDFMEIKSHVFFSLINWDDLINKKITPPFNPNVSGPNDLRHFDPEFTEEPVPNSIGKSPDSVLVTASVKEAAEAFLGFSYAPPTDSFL
TAK1/TAB1, sequence (Q15750 whole entry, the tested form may be a part): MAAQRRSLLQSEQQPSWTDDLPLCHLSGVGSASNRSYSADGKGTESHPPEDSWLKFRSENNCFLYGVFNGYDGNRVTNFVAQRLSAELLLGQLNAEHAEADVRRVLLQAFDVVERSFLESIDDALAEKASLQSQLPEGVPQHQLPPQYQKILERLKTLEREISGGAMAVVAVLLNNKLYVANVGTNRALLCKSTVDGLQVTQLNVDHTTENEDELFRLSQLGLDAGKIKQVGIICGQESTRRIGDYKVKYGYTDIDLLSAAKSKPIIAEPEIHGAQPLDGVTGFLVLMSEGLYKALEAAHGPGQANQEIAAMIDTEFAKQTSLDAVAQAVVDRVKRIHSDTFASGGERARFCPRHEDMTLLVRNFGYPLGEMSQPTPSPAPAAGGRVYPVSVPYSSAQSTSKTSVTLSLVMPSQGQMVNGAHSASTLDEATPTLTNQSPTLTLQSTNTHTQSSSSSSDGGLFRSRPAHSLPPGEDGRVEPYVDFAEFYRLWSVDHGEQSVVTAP
TAK1/TAB1, sequence (O43318 whole entry, the tested form may be a part): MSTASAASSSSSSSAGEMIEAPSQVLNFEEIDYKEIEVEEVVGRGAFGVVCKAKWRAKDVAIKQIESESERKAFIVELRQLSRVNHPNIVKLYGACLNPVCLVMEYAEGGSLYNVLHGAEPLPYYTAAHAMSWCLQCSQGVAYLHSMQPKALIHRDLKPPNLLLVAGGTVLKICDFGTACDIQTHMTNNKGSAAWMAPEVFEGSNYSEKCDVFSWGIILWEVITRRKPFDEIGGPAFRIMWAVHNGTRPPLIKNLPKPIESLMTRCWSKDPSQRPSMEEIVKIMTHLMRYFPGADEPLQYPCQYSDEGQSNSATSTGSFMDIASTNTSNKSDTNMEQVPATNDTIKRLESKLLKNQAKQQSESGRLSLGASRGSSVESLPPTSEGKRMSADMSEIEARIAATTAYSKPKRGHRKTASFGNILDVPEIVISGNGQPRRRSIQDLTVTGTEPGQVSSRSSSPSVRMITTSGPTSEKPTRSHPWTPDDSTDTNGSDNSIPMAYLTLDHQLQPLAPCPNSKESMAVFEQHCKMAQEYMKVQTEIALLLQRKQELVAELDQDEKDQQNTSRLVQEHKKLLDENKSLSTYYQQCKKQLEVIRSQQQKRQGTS
Rho-associated protein kinase 2 (Homo sapiens), sequence (O75116 whole entry, looked up, the tested form may be a part): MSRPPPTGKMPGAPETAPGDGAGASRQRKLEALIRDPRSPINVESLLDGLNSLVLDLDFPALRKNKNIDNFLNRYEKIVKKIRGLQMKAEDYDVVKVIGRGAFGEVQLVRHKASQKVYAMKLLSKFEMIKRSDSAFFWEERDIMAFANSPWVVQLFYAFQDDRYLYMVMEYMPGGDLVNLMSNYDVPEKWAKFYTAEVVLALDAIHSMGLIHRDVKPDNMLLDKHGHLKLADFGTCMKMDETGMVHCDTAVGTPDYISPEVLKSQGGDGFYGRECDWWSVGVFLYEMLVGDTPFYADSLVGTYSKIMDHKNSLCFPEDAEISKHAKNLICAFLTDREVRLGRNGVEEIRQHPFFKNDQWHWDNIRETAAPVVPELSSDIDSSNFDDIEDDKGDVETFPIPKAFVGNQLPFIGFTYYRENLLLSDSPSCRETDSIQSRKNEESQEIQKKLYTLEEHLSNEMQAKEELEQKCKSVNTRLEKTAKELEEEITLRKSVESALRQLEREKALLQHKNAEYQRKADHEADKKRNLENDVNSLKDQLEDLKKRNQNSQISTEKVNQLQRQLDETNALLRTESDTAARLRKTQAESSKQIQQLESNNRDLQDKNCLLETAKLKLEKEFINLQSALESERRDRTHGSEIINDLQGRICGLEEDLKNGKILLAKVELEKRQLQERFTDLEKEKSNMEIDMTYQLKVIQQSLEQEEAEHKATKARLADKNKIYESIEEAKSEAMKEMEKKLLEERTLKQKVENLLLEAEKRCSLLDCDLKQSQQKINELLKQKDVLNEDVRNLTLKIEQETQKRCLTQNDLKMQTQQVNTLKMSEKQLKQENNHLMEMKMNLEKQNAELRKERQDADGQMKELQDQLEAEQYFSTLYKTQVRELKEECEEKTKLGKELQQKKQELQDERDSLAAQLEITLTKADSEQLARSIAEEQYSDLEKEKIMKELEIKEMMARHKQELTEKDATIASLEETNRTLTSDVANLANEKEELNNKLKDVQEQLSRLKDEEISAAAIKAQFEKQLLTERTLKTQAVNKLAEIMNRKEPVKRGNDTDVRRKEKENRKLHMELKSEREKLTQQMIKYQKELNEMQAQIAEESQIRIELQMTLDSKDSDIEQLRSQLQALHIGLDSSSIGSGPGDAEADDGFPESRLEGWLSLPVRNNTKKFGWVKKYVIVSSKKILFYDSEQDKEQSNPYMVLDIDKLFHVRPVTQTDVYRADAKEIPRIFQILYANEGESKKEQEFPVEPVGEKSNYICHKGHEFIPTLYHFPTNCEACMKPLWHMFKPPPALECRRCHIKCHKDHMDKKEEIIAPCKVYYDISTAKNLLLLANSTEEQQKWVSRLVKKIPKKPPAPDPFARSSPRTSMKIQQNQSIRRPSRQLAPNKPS
Calcium/calmodulin-dependent protein kinase type IV (Homo sapiens), sequence (Q16566 whole entry): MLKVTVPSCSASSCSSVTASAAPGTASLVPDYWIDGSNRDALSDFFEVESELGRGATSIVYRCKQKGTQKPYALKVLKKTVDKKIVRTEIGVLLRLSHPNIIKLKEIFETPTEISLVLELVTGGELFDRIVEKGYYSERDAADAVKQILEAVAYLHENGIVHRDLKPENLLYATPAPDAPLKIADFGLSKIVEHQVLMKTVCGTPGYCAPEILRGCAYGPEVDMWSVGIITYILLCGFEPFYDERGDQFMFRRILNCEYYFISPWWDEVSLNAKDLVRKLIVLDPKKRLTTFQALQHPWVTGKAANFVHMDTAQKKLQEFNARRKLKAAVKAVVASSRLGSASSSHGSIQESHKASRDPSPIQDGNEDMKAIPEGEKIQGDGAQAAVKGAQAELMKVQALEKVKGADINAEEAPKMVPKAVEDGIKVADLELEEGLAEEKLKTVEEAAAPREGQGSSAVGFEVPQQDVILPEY
Receptor-type tyrosine-protein kinase FLT3 (Homo sapiens), sequence (P36888 whole entry, the tested form may be a part): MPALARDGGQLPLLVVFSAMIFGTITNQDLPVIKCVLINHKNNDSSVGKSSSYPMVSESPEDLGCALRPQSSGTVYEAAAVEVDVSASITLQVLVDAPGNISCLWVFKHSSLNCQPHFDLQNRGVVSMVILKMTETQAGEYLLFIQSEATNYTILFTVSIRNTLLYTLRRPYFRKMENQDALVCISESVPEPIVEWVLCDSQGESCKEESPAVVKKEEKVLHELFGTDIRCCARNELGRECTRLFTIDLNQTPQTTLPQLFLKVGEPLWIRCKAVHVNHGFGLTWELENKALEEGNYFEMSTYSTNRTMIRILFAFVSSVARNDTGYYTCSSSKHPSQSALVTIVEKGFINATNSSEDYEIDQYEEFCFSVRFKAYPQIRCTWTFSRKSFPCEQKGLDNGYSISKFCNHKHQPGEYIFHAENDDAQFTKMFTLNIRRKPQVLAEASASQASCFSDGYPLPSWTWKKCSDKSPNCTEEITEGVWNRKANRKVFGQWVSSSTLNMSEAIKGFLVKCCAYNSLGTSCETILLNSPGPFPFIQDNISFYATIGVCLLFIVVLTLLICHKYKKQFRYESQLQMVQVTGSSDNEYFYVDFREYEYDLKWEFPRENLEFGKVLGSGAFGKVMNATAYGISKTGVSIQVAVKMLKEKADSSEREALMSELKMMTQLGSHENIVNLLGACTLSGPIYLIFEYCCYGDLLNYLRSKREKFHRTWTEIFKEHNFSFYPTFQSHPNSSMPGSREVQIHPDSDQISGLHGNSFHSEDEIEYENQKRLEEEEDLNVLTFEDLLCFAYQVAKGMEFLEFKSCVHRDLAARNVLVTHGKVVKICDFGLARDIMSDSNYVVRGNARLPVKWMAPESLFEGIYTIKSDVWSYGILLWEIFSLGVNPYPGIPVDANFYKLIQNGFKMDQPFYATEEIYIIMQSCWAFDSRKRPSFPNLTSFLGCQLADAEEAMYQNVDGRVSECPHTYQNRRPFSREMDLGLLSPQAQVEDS

The IC50 is the point on the concentration scale where inhibition reaches its midpoint. The term Ki denotes a measure of affinity in units of concentration, obtained from inhibition or displacement. As a reminder, the GI50 is the concentration giving 50% growth inhibition. Lower therefore signals greater sensitivity of the cells. Consider `C=CC(=O)N1CCC(Oc2nc(Nc3ccc(N4CCOCC4)cc3)nc3[nH]cc(-c4cncc(NC)n4)c23)CC1`, for which the K in test [1] was determined as 0.038 min⁻¹. Besides, in test [2], the inhibition entry was “inactive”. Besides, the result in test [3], in test [8] and in [10] was Active. Further, the values for the IC50 in [4], in [11] and in test [16] were 3.7 nM, 996 nM and 54 nM, respectively. In [4], the Ki was determined as 6.3 nM. The Activity in test [5] turned out to be 107%; in test [7], 89%; in test [12] it was 16.3%; in test [13] it was 21%; in test [14], 64.3%; in test [17] it was 97%. Also, the results for the Activity in [18], in [19] and in test [20] were 84%, 2.3% and 96.3%, respectively. In addition, the concentration for 50% growth inhibition (GI50) was found to be 544 nM in test [6] and 127 nM in [15]. Moreover, the Ratio in test [9] stood at 101 ×10³ /M.s.

The record behind these values is ChEMBL document CHEMBL4346710, “Discovery of 7H-pyrrolo[2,3-d]pyrimidine derivatives as selective covalent irreversible inhibitors of interleukin-2-inducible T-cell kinase (Itk)” (Eur J Med Chem, 2019).
